How the values were obtained:
[1] = Ocular PK (distribution) study in Dutch-belted rabbits, topical ocular dosing, compound 1003 measured by LC/MS/MS; type: in vivo; conditions: topical ocular administration of compounds 1001 and 1002 to rabbits, compared with each other
Description: The ocular distribution of compound 1001,
[drawing 220] in the ocular tissues of Dutch-belted rabbits when administered topically to the surface of the eye was evaluated.
Healthy, young adult Dutch-belted rabbits (male/female; at least 1.5 kg) were acclimated for at least 7 days prior to initiation of the study. Prior to the initiation of the study, the eyes of the rabbits were examined to ensure that the eyes were free of any defects that may affect the integrity of the study. Examinations were performed by a qualified observer.
Animals were dosed via the topical ocular route using a pipettor system which delivered a 30 μL dose to each eye. Each animal was dosed at T=0. The right eye received a dose concentration of 300 μg/mL of compound 1001 and the left eye received a dose concentration of 300 μg/mL of compound 1002. At the intervals noted in Table 3, the animals were sacrificed. […]
Spiking solutions for standards were prepared by diluting compound 1003 as its sodium salt (e.g., M is Na) (dissolved in ethanol) in ethanol spanning the concentration range of 0.100 to 4000 ng/mL of compound 1003. Two standard curves were extracted and subsequently analyzed one before and one after the samples. […]
Compound 1003 in the homogenized/extracted/dried/reconstituted samples was analyzed by LC/MS/MS using D4-PGE2 as the internal standard. […]

[2] = Chemical stability study, HPLC purity (% area) over time; type: physicochemical; conditions: for % Area Compound / % Area Impurity: 500 μg/mL ophthalmic formulation, pH 5.5, 5° C.; for time the reference solution was stable: reference solution in water/absolute ethanol (90/10 v/v), stored at 5° C.±3° C., protected from light
Description: The chemical stability of compounds 1001 and 1002 was measured via HPLC analysis of the purity of these compounds over time. The purity assay of active components using percent area (% area) and impurities reported as percent area (% area) were measured by HPLC using the following conditions:
A sample diluent was prepared with water/absolute ethanol (90/10 v/v).
Reference solutions of compounds 1001 and 1002 were prepared by weighing approximately 10 mg (±2 mg) of a 1 mg/mL stock solution of compound 1001 or 1002 into a 1 mL amber volumetric flask. Approximately 0.5 mL of sample diluent was added and the solution swirled to mix. The sample was diluted to volume with sample diluent and mixed well. The reference solution for compound 1001 was stable for up to 7 days stored at 5° C.±3° C., protected from light. The reference solution for compound 1002 was stable for up to 3 days stored at 5° C.±3° C., protected from light.
Ophthalmic formulations of compounds 1001 (0.994 g of a 52 mg/mL solution in propylene glycol) or compound 1002 (1.034 g of a 50 mg/mL solution in propylene glycol) were prepared at 500 μg/mL dose strength in potassium phosphate buffer (25 mM, pH 5.5, 0.34 g) with 0.2 M sodium hydroxide solution (q.s.), sodium chloride (0.327 g), polysorbate 80 (0.5% w/v), and purified water (q.s. to 100). Sample solutions of compounds 1001 and 1002 were each prepared by accurately weighing approximately 20 mg of the 500 μg/mL compound formulation into a 1 mL amber volumetric flask. Approximately 0.5 mL of sample diluent was added and the solution gently swirled to mix. The solution was diluted to volume with sample diluent and mixed well.
The following equation was used to calculate the compound 1001 or compound 1002 purity assay (% area) in each sample: Analogue Content(% area)=(Area of analog/Total area of all peaks≧0.10% area)×100.
Impurities≧0.10% area were integrated and reported as % area to 2 decimal places.
Tables 5 and 6 show the results of the chemical stability study of compounds 1001 and 1002, respectively, over the course of 8 weeks at 5° C.

[3] = system: signs and symptoms of dry eye; test: Study of compound 1001 in dry eye: multi-center, double-masked, randomized, placebo-controlled; type: in vivo, human patients; conditions: for change in ocular discomfort as compared to vehicle (ORA Ocular Discomfort Scale), improvement: dose C (275.6 μg/mL)
Source text: The objective of this study was to compare the efficacy of compound 1001 to placebo (vehicle minus active) for the treatment of the signs and symptoms of dry eye, in a multi-center, double-masked, randomized, placebo-controlled study in which 100 human patients were equally randomized into one of three active treatment groups or placebo and all treatment groups were exposed to identical humidity, temperature, and wind conditions which exacerbated the symptoms of dry eye. During a 14 day study run-in period prior to randomization (e.g., day −14 to day 0), all patients received placebo bilaterally two times per day (BID). At the time of treatment randomization (e.g., day 0), patients were exposed to 90 minutes of identical humidity, temperature, and wind conditions which exacerbated the symptoms of dry eye after which patients were stratified based on the following criterion: Central corneal staining post-exposure<2.5 or >3.0. Patients eligible to be randomized received one of the following treatments to be administered as approximately a 30 μL drop to both eyes BID: 1) Compound 1001 at dose A (26.4 μg/mL) Ophthalmic Solution; 2) Compound 1001 at dose B (87.8 μg/mL) Ophthalmic Solution; 3) Compound 1001 at dose C (275.6 μg/mL) Ophthalmic Solution; 4) Placebo Ophthalmic Solution (Vehicle minus active). Brief Summary of Visit Schedule. […] The primary endpoint of mean ocular discomfort in the conditions for exacerbating the symptoms of dry eye using the ORA Ocular Discomfort Scale (during the 90 minute exposure) was summarized statistically (m, mean, standard deviation, median, min and max), and analyzed with 1-sided t-tests comparing the best dose to placebo with a p-value<0.025 considered significant. […] Ocular discomfort during this exposure period was measured using the ORA Ocular Discomfort Scale with the ocular discomfort score being the average of all time points during exposure. Ocular discomfort was measured again at visit 5 (e.g., day 29). […] Symptoms of grittiness, dryness were measured on environmental day 28 on a visual analog scale of 0-5.

SMILES | levels of compound 1003 observed in the aqueous humor, the vitreous and the cornea (FIG. 1) [1] | % Area Compound ([2]; 1 week) [% Area] | % Area Impurity ([2]; 1 week) [% Area] | % Area Compound ([2]; 2 weeks) [% Area] | % Area Impurity ([2]; 2 weeks) [% Area] | % Area Compound ([2]; 4 weeks) [% Area] | % Area Impurity ([2]; 4 weeks) [% Area] | % Area Compound ([2]; 8 weeks) [% Area] | % Area Impurity ([2]; 8 weeks) [% Area] | % Area Compound ([2]; Initial) [% Area] | % Area Impurity ([2]; Initial) [% Area] | time the reference solution was stable [2] | dryness, visual analog scale of 0-5, change as compared to vehicle ([3]; day 28, dose C (275.6 μg/mL) topically, FIG. 4) | change in ocular discomfort as compared to vehicle (ORA Ocular Discomfort Scale), improvement ([3]; day 28, approx. 30 μL drop to both eyes BID, FIG. 2) [%] | change in ocular discomfort as compared to vehicle (ORA Ocular Discomfort Scale), improvement ([3]; day 29, 24 hours after last treatment, FIG. 3) [%] | chemical stability compared (percent purity over time) ([2]; 8 weeks at 5° C., compound 1001 versus compound 1002)
C#CC[C@@H](O)/C=C/C=C/C#C[C@@H](O)CCCC(=O)OC [Compound 1002] | comparable levels | 97.58 | 2.43 | 97.46 | 2.55 | 96.54 | 3.46 | 94.95 | 5.05 | 98.29 | 1.71 | up to 3 days |  |  |  | 
C#CC[C@@H](O)/C=C/C=C/C#C[C@@H](O)CCCC(=O)OC(C)C [Compound 1001] | comparable levels |  |  | 99.03 | 0.97 | 99.39 | 0.61 | 99.31 | 0.69 | 99.55 | 0.45 | up to 7 days | significant change | ~27 | ~36 | better chemical stability

Source: patent US8673881B2, “Compositions and methods for the treatment of inflammation” (A.T. Resolve Sarl, priority 2009, dated 2014)
